Measurements from patent US20250163057A1, “DCN-1 MODULATING COMPOUNDS AND METHODS OF USE THEREOF” (Cellarity, Inc., priority 2023, published 2025).
Like-named read-outs stand apart in the source and are kept apart here.

How the values were obtained:
[1] = tested on: fetal hemoglobin gene HBG1; assay: HBG1 Nanostring Assay in CD34+ HSPC erythroid differentiation culture; type: cell-based, human; conditions: for EC50: HBG1 induction, Day10 of erythroid differentiation; for Nanostring Ymax obs (%): relative to a control compound (C1)
How it was run: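 HBG1 counts came from direct nCounter hybridization (67° C, 22 h) of day-10 lysates, normalized to ERCC positive controls and a housekeeping gene, giving EC50 and Ymax versus a reference compound. Compounds in 0.1% DMSO were present from day −2 while cells underwent EPO/SCF/IL-3 erythroid differentiation, with IL-3 dropped at day 7, at 37° C.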

[2] = tested on: Cullin-3 (CUL3) neddylation; assay: AlphaLISA assay for Cullin-3 (CUL3) neddylation in TF 1 cells; type: cell-based; conditions: 3 hours treatment
How it was run: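 Neddylated CUL3 was quantified by AlphaLISA in lysates of TF 1 cells exposed for 3 h to test compound in IMDM without supplements. Percent inhibition set between vehicle and 1 μM DI-1548 positive control; IC50 derived by Hill-equation fitting of dose-response curves.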

[3] = target: DCN1 (DCUND1) protein PONY domain (Homo sapiens (Human), UniProt Q96GG9); assay: TR-FRET assay, DCN1 binding with FAM-labeled probe
Sequence of DCN1 (DCUND1) protein PONY domain (Q96GG9 60-248): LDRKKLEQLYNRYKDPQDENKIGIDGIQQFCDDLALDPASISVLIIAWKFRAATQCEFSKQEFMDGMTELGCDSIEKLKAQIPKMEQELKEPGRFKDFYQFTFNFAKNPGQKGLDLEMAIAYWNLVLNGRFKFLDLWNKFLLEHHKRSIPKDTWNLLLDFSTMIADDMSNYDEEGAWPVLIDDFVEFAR
How it was run: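 Biotinylated DCN1 PONY domain, labeled with streptavidin-Tb, was competed against a FAM-labeled non-covalent DCN1 inhibitor probe in buffer with TritonX and 200 mM NaCl. Conditions were 5 nM DCN1 with 20 nM FAM-probe, or 0.31 nM DCN1 with 100 nM FAM-plus 800 nM unlabeled probe. The TR-FRET ratio was read at 1, 5 and 24 h (0.1% DMSO).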

DCN1 protein = DCN1 protein (Homo sapiens (Human), UniProt Q96GG9); assay: Intact Protein MS Analysis with the RapidFire-TOF System (covalent adduct formation); type: binding; conditions: MS Emax; 400 nM DCN1, 3 hours at room temperature
Sequence of DCN1 protein (Q96GG9 whole entry): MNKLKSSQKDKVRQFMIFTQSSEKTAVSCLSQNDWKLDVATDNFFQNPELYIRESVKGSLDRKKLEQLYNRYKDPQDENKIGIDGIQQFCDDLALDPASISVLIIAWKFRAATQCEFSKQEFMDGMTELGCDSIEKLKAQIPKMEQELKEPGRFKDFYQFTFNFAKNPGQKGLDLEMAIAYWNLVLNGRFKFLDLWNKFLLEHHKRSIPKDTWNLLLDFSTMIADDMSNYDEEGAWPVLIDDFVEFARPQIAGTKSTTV
How it was run: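 Tag-cleaved human DCN1 (400 nM) expressed in E. coli, in 25 mM Tris-HCl, 200 mM NaCl, 1 mM DTT, was incubated with 11 compound concentrations for 3 h at room temperature and quenched with 0.2% formic acid. Intact-protein Q-TOF MS with deconvolution detected the compound adduct mass.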

[4] = 24 hr after treatment with compound, read-out: TR FRET IC50 24 hr
[5] = read-out: TR FRET IC50 1 hr, 1 hr after treatment with compound
[6] = TR FRET IC50 1 hr (nM), 1 hr after treatment with compound

## C=CC(=O)Nc1nn(-c2ccccc2)c2c1[C@H](c1ccc(F)cc1)[C@H](NC(=O)c1cccc(C(F)(F)F)c1)C(=O)N2CC (racemic) [Compound I-122]
[1]; Homo sapiens, 240 h
  EC50: > 1 µM
[1]
  Nanostring Ymax obs (%): ++ (Nanostring Ymax greater than 50.0 and less than or equal to 100.0)
[2]; Homo sapiens, TF-1, 3 h
  IC50: 0.1 to 1 µM
[3]; [4]
  IC50: ≤ 200 nM
[3]; [5]
  IC50: ≤ 200 nM
DCN1 protein
  % Adduct Formation: ++ (MS Emax % adduct formation greater than 30.0 and less than or equal to 80.0)

## CCN1C(=O)[C@@H](NC(=O)c2cccc(C(F)(F)F)c2)[C@@H](c2ccc(F)cc2)c2c(NC(=O)/C=C/C(=O)OC)nn(-c3ccccc3)c21 (racemic) [Compound I-136]
[1]; Homo sapiens, 240 h
  EC50: > 1 µM
[1]
  Nanostring Ymax obs (%): + (Nanostring Ymax greater than or equal to 0.0 and less than or equal to 50.0)
[2]; Homo sapiens, TF-1, 3 h
  IC50: ≤ 0.1 µM
[3]; [6]
  IC50: 200 to 1000 nM
DCN1 protein
  % Adduct Formation: +++ (MS Emax % adduct formation greater than 80.0 and less than or equal to 100.0)

## CCN1C(=O)[C@@H](NC(=O)c2cccc(C(F)(F)F)c2)[C@@H](c2ccc(F)cc2)c2c(CNC(=O)CC#N)nn(-c3ccccc3)c21 (racemic) [Compound I-147, rac-N-((4R,5R)-3-((2-cyanoacetamido)methyl)-7-ethyl-4-(4-fluorophenyl)-6-oxo-1-phenyl-4,5,6,7-tetrahydro-1H-pyrazolo[3,4-b]pyridine-5-yl)-3-(trifluoromethyl)benzamide]
[1]; Homo sapiens, 240 h
  EC50: > 1 µM
[1]
  Nanostring Ymax obs (%): + (Nanostring Ymax greater than or equal to 0.0 and less than or equal to 50.0)
[2]; Homo sapiens, TF-1, 3 h
  IC50: 0.1 to 1 µM
[3]; [4]
  IC50: 200 to 1000 nM
[3]; [6]
  IC50: 1000 to 3000 nM
DCN1 protein
  % Adduct Formation: + (MS Emax % adduct formation greater than or equal to 0.0 and less than or equal to 30.0)

## CCN1C(=O)[C@@H](NC(=O)c2cccc(C(F)(F)F)c2)[C@@H](c2ccc(F)cc2)c2c(NC(=O)CCl)nn(-c3ccccc3)c21 (racemic) [Compound I-161]
[1]; Homo sapiens, 240 h
  EC50: 0.1 to 1 µM
[1]
  Nanostring Ymax obs (%): ++ (Nanostring Ymax greater than 50.0 and less than or equal to 100.0)
[2]; Homo sapiens, TF-1, 3 h
  IC50: ≤ 0.1 µM
[3]; [4]
  IC50: ≤ 200 nM
[3]; [6]
  IC50: 1000 to 3000 nM
DCN1 protein
  % Adduct Formation: + (MS Emax % adduct formation greater than or equal to 0.0 and less than or equal to 30.0)

## CCN1C(=O)[C@@H](NC(=O)c2cccc(C(F)(F)F)c2)[C@@H](c2ccc(F)cc2)c2c(C(=O)N3CC(F)(F)C[C@H]3C#N)nn(-c3ccccc3)c21 (racemic) [Compound I-251, N-((4RS,5RS)-3-(I-2-cyano-4,4-difluoropyrrolidine-1-carbonyl)-7-ethyl-4-(4-fluorophenyl)-6-oxo-1-phenyl-4,5,6,7-tetrahydro-1H-pyrazolo[3,4-b]pyridine-5-yl)-3-(trifluoromethyl)benzamide]
[1]; Homo sapiens, 240 h
  EC50: 0.1 to 1 µM
[1]
  Nanostring Ymax obs (%): ++ (Nanostring Ymax greater than 50.0 and less than or equal to 100.0)
[2]; Homo sapiens, TF-1, 3 h
  IC50: ≤ 0.1 µM
[3]; [4]
  IC50: ≤ 200 nM
[3]; [6]
  IC50: ≤ 200 nM
DCN1 protein
  % Adduct Formation: +++ (MS Emax % adduct formation greater than 80.0 and less than or equal to 100.0)

## CCN1C(=O)[C@@H](NC(=O)c2cccc(C(F)(F)F)c2)[C@@H](C2CC2)c2c(C(=O)N3CCNC[C@@H]3C#N)nn(C3CCOCC3)c21 (single isomer, unassigned) [Compound I-371]
[1]; Homo sapiens, 240 h
  EC50: 0.1 to 1 µM
[1]
  Nanostring Ymax obs (%): ++ (Nanostring Ymax greater than 50.0 and less than or equal to 100.0)
[2]; Homo sapiens, TF-1, 3 h
  IC50: ≤ 0.1 µM
[3]; [4]
  IC50: ≤ 200 nM
[3]; [6]
  IC50: 200 to 1000 nM
DCN1 protein
  % Adduct Formation: +++ (MS Emax % adduct formation greater than 80.0 and less than or equal to 100.0)

## CCN1C(=O)[C@H](NC(=O)c2cccc(C(F)(F)F)c2)[C@H](c2ccc(F)cc2)c2c([C@@H](C)NC#N)nn(-c3ccccc3)c21 [Compound I-13, N-((4R,5R)-3-((R)-1-cyanamidoethyl)-7-ethyl-4-(4-fluorophenyl)-6-oxo-1-phenyl-4,5,6,7-tetrahydro-1H-pyrazolo[3,4-b]pyridin-5-yl)-3-(trifluoromethyl)benzamide]
[1]; Homo sapiens, 240 h
  EC50: > 1 µM
[1]
  Nanostring Ymax obs (%): + (Nanostring Ymax greater than or equal to 0.0 and less than or equal to 50.0)
[2]; Homo sapiens, TF-1, 3 h
  IC50: 0.1 to 1 µM
[3]; [4]
  IC50: 1000 to 3000 nM
[3]; [6]
  IC50: 1000 to 3000 nM
DCN1 protein
  % Adduct Formation: ++ (MS Emax % adduct formation greater than 30.0 and less than or equal to 80.0)

## CCN1C(=O)[C@H](NC(=O)c2cccc(C(F)(F)F)c2)[C@H](c2ccc(F)cc2)c2c(CN(C)C#N)nn(-c3ccccc3)c21 [Compound I-20]
[1]; Homo sapiens, 240 h
  EC50: > 1 µM
[1]
  Nanostring Ymax obs (%): + (Nanostring Ymax greater than or equal to 0.0 and less than or equal to 50.0)
[2]; Homo sapiens, TF-1, 3 h
  IC50: > 1 µM
[3]; [4]
  IC50: 1000 to 3000 nM
[3]; [6]
  IC50: 1000 to 3000 nM
DCN1 protein
  % Adduct Formation: ++ (MS Emax % adduct formation greater than 30.0 and less than or equal to 80.0)

## C=C(C(=O)O)c1nn(-c2ccccc2)c2c1[C@@H](c1ccc(F)cc1)[C@@H](NC(=O)c1cccc(C(F)(F)F)c1)C(=O)N2CC [Compound I-77, 2-((4R,5R)-7-ethyl-4-(4-fluorophenyl)-6-oxo-1-phenyl-5-(3-(trifluoromethyl)benzamido)-4,5,6,7-tetrahydro-1H-pyrazolo[3,4-b]pyridin-3-yl)acrylic acid]
[1]; Homo sapiens, 240 h
  EC50: > 1 µM
[1]
  Nanostring Ymax obs (%): + (Nanostring Ymax greater than or equal to 0.0 and less than or equal to 50.0)
[2]; Homo sapiens, TF-1, 3 h
  IC50: > 1 µM
[3]; [4]
  IC50: 1000 to 3000 nM
[3]; [6]
  IC50: 1000 to 3000 nM
DCN1 protein
  % Adduct Formation: + (MS Emax % adduct formation greater than or equal to 0.0 and less than or equal to 30.0)

## CCN1C(=O)[C@@H](NC(=O)c2cccc(C(F)(F)F)c2)[C@H](c2ccc(F)cc2)c2c(CNC(=O)/C=C(\C)C(=O)OC)nn(-c3ccccc3)c21 [Compound I-104]
[1]; Homo sapiens, 240 h
  EC50: > 1 µM
[1]
  Nanostring Ymax obs (%): ++ (Nanostring Ymax greater than 50.0 and less than or equal to 100.0)
[2]; Homo sapiens, TF-1, 3 h
  IC50: 0.1 to 1 µM
[3]; [4]
  IC50: 200 to 1000 nM
[3]; [6]
  IC50: 200 to 1000 nM
DCN1 protein
  % Adduct Formation: + (MS Emax % adduct formation greater than or equal to 0.0 and less than or equal to 30.0)

## C=C(CO)C(=O)NCc1nn(-c2ccccc2)c2c1[C@@H](c1ccc(F)cc1)[C@H](NC(=O)c1cccc(C(F)(F)F)c1)C(=O)N2CC [Compound I-106]
[1]; Homo sapiens, 240 h
  EC50: > 1 µM
[1]
  Nanostring Ymax obs (%): ++ (Nanostring Ymax greater than 50.0 and less than or equal to 100.0)
[2]; Homo sapiens, TF-1, 3 h
  IC50: 0.1 to 1 µM
[3]; [4]
  IC50: 200 to 1000 nM
[3]; [6]
  IC50: 200 to 1000 nM
DCN1 protein
  % Adduct Formation: + (MS Emax % adduct formation greater than or equal to 0.0 and less than or equal to 30.0)

## CCN1C(=O)[C@H](NC(=O)c2cccc(C(F)(F)F)c2)[C@@H](c2ccc(F)cc2)c2c(CNC(=O)/C(C)=C/C(=O)OC)nn(-c3ccccc3)c21 [Compound I-108]
[1]; Homo sapiens, 240 h
  EC50: > 1 µM
[1]
  Nanostring Ymax obs (%): ++ (Nanostring Ymax greater than 50.0 and less than or equal to 100.0)
[2]; Homo sapiens, TF-1, 3 h
  IC50: ≤ 0.1 µM
[3]; [4]
  IC50: 200 to 1000 nM
[3]; [6]
  IC50: 200 to 1000 nM
DCN1 protein
  % Adduct Formation: + (MS Emax % adduct formation greater than or equal to 0.0 and less than or equal to 30.0)

## CCN1C(=O)[C@@H](NC(=O)c2cccc(C(F)(F)F)c2)[C@@H](c2ccc(F)cc2)c2c(CN(C)C(=O)/C=C/CN(C)C)nn(-c3ccccc3)c21 [Compound I-117]
[1]; Homo sapiens, 240 h
  EC50: > 1 µM
[1]
  Nanostring Ymax obs (%): + (Nanostring Ymax greater than or equal to 0.0 and less than or equal to 50.0)
[2]; Homo sapiens, TF-1, 3 h
  IC50: > 1 µM
[3]; [4]
  IC50: 200 to 1000 nM
[3]; [6]
  IC50: 200 to 1000 nM
DCN1 protein
  % Adduct Formation: + (MS Emax % adduct formation greater than or equal to 0.0 and less than or equal to 30.0)

## CCN1C(=O)[C@@H](NC(=O)c2cccc(C(F)(F)F)c2)[C@@H](c2ccc(F)cc2)c2c(NC(=O)/C=C/C(F)(F)F)nn(-c3ccccc3)c21 [Compound I-125]
[1]; Homo sapiens, 240 h
  EC50: 0.1 to 1 µM
[1]
  Nanostring Ymax obs (%): +++ (Nanostring Ymax greater than 100.0)
[2]; Homo sapiens, TF-1, 3 h
  IC50: ≤ 0.1 µM
[3]; [4]
  IC50: 200 to 1000 nM
[3]; [5]
  IC50: > 3000 nM
DCN1 protein
  % Adduct Formation: ++ (MS Emax % adduct formation greater than 30.0 and less than or equal to 80.0)

## CCN1C(=O)[C@@H](NC(=O)c2cccc(C(F)(F)F)c2)[C@@H](c2ccc(F)cc2)c2c(CN(C)C#N)nn(-c3ccccc3)c21 [Compound I-129]
[1]
  EC50: > 1 µM
  Nanostring Ymax obs (%): + (Nanostring Ymax greater than or equal to 0.0 and less than or equal to 50.0)
[2]
  IC50: 0.1 to 1 µM
[3]; [4]
  IC50: ≤ 200 nM
[3]; [6]
  IC50: 200 to 1000 nM
DCN1 protein
  % Adduct Formation: +++ (MS Emax % adduct formation greater than 80.0 and less than or equal to 100.0)

## C=C(CC(=O)NCc1nn(-c2ccccc2)c2c1[C@@H](c1ccc(F)cc1)[C@H](NC(=O)c1cccc(C(F)(F)F)c1)C(=O)N2CC)C(=O)OC [Compound I-132]
[1]; Homo sapiens, 240 h
  EC50: > 1 µM
[1]
  Nanostring Ymax obs (%): + (Nanostring Ymax greater than or equal to 0.0 and less than or equal to 50.0)
[2]; Homo sapiens, TF-1, 3 h
  IC50: 0.1 to 1 µM
[3]; [4]
  IC50: ≤ 200 nM
[3]; [6]
  IC50: 200 to 1000 nM
DCN1 protein
  % Adduct Formation: ++ (MS Emax % adduct formation greater than 30.0 and less than or equal to 80.0)
